Where a name gives a salt, the structure may show the parent alone.
Experiments:
MOLM14 cells = test: Proliferation assay (spheroid growth, 8 days), MOLM14; assay type: cell-based, human; settings: Homo sapiens, MOLM-14, […], MOLM14, 8 days; read-out: spheroid assay_OneTime MOLM14 IC50;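 further: spheroid size read as confluence by live-cell imaging, compounds added at a range of concentrations with 0.3% DMSO, DMSO-treated wells = 0%, highest reference dose = low control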
[1] = Mouse PK (in vivo T1/2 and oral bioavailability); settings: fasted male CD-1 mice, formulating agent HP-β-CD; for half-life: single IV 0.5 or 1.0 mg/kg; for bioavailability: single PO 5 mg/kg
Protocol: 3) Mouse PK (In Vivo T1/2 and Oral Bioavailability)
In vivo pharmacokinetics (PK) were assessed in fasted male CD-1 mice (age 6-8 weeks) following a single intravenous (IV, 0.5 or 1.0 mg/kg administered at 2.5 ml/kg) or oral (PO, 5 mg/kg administered at 10 ml solution/kg) dose of test article formulated in a 20% (w:vol) HP-β-CD solution or in Pyrogen free water.
Plasma and/or whole blood samples were collected from the dorsal metatarsal vein at desired timepoints via serial capillary microsampling (approx. 0.03 mL) using EDTA as an anticoagulant. Concentrations of compound in the plasma and blood samples were analyzed using a qualified LC-MS/MS method. In silico analysis of main pharmacokinetic parameters was performed using WinNonlin (Phoenix™, version 6.1) or similar software. (Results see Table 4)

hERG = hERG (Homo sapiens (Human), UniProt Q12809); test: Effect on membrane potassium current IKr in hERG-transfected HEK293 cells, Protocol 2 (SyncroPatch 384PE); assay type: cell-based; settings: Protocol 2, hERG-transfected HEK293 cells
hERG, sequence (Q12809 whole entry): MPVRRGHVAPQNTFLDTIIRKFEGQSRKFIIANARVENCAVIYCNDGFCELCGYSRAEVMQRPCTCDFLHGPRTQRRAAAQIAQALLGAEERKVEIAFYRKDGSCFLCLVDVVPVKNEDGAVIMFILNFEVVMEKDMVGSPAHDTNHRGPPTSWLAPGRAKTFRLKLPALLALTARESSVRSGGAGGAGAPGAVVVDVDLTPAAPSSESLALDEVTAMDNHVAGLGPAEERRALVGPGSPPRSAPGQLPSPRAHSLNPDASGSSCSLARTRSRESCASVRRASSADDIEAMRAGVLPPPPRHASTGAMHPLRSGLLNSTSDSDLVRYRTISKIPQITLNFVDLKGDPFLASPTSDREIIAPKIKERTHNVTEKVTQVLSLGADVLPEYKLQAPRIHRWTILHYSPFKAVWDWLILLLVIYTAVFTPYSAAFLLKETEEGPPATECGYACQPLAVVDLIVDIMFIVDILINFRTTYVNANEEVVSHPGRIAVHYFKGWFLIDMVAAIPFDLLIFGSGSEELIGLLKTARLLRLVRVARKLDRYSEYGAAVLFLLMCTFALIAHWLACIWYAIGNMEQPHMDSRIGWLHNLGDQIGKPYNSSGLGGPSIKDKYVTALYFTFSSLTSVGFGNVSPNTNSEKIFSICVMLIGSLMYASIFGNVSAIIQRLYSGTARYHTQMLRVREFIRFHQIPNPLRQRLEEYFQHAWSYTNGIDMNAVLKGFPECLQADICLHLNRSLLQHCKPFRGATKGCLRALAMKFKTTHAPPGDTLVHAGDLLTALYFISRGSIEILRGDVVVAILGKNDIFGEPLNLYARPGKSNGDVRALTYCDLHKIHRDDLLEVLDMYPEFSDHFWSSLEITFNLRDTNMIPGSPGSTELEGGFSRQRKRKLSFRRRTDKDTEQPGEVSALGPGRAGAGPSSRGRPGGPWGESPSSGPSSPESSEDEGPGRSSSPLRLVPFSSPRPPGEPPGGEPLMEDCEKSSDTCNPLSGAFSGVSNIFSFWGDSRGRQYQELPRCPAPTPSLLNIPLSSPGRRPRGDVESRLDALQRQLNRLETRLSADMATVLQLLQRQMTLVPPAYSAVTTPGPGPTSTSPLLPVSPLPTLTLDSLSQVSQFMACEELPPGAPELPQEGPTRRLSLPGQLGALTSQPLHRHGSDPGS
Protocol: 8) Effect on the Membrane Potassium Current IKr in hERG Transfected Cell Lines
The compound, vehicle control and positive control were tested on hERG-transfected HEK293 cells. A human embryonic kidney cell line (HEK293) with a stable transfection of hERG (Zhou Z et al. Biophysical Journal 1998. 74, 230-241; McDonald T. V. et al, Nature 1997. 388, 289-292) was used (University of Wisconsin, Madison, USA). The cells were kept in culture in MEM (Minimum Essential Medium, Gibco) which was supplemented with (amounts indicated added to 500 ml MEM): 5 ml L-Glutamine-Penicillin-Streptomycin (Sigma), 50 ml Fetal Bovine serum (Bio-Whittaker), 5 ml Non-essential Amino Acids 100× (Gibco), 5 ml sodium pyruvate 100 mM (Gibco) and 4 ml geneticin 50 mg/ml (Gibco) using T175 flasks. The cells were incubated at 37° C. in 5% CO2 atmosphere (in air).
Cell Harvesting for Assay
Cells were harvested as described below using Accumax™ (Sigma) as the dissociating reagent. Cells were then resuspended in a mixture of 33% DMEM/F12 (Dulbecco's Modified Eagle Medium/Nutrient Mixture F-12—Sigma) media/67% extracellular physiological solution.
The flasks were washed twice carefully with ˜5-10 ml phosphate buffered saline (PBS) (Gibco™) containing 2 mM EDTA (Ethylenediaminetetraacetic acid) (Sigma). The cells were dissociated using ˜3 ml of Accumax™ (cell detachment solution) and incubated for ˜5 to 10 min. at 37° C. Cold external physiological solution (2-5 ml) was added and the flasks are incubated at ˜4° C. for 5-10 min. Then, the cell suspension in each flask was gently dissociated with a 5 ml pipette. The cell suspension was transferred to a low binding petri-dish (˜[…]). Each flask was washed with ˜additional 5 ml cold external physiological solution and this solution was also added to the petri-dish. The petri-dish was then incubated for another 5 to 10 minutes at ˜4° C. After another gentle dissociation of the cell suspension in the petri dish, the cells were transferred to a reservoir kept on an orbital shaker at 200 rpm at 16° C. Before experiments were performed, the cells recovered for ˜20 min.
A 10 mM solution of the compound was used and plated in a 384 well plate. Aliquots of the stock solutions are diluted with the recording solution (see section 3) using automated liquid handling (Biomek FXP; final DMSO concentration: 0.03 to 0.3%). A standard range of screening concentrations was used ranging from 1 μM to 30 μM.
A positive control (E-4031) was included within each run to evaluate the sensitivity of the assay.
External and Intracellular Solutions Used in the Experiments
In the table below the composition of the intracellular and external buffer solutions is shown in [mM] (“NMDG” means N-methyl-D-glucamine)
The whole cell patch clamp technique on transfected cells allows the study of ion-channels with no—or limited interference from other ion-channels. The effects of the compounds on the hERG current were studied with an automated planar patch clamp system, SyncroPatch 384PE (Obergrussberger et al, Journal of Laboratory Automation 2016. 21 (6). 779-793). All cells were recorded in the whole cell mode of the patch clamp technique. The module is incorporated in a liquid handling pipetting robot system, Biomek FXP, for application of cells and compounds, vehicle control and positive control.
The different concentrations of the compounds were applied in two cumulatively increasing concentrations for the compounds (1 μM and 10 μM, and 3 μM and 30 μM, respectively). The hERG current was determined as the maximal tail current at −30 mV and percent inhibition upon compound or vehicle and positive control addition was reported.
After cells are caught onto the individual holes of the recording chips using the chip fill solution, the seal is increased with the seal enhancer solution (increased [Ca^2+]; then the cells were washed twice with recording solution before using a pressure protocol to go into the whole cell mode. […]

SMILES	IC50 (MOLM14 cells) [nM]	half-life [1] [h]	bioavailability [1] [%]	IC50 (hERG) [nM]
CCN(C(=O)c1cc(F)ccc1Oc1nncnc1N1CCC2(C1)CN([C@H](CCCN)C(C)C)C2)C(C)C [Compound 1, (R)-2-((5-(2-(6-amino-2-methylhexan-3-yl)-2,6-diazaspiro[3.4]octan-6-yl)-1,2,4-triazin-6-yl)oxy)-N-ethyl-5-fluoro-N-isopropylbenzamide formate]	230	15	< 1	
CCN(C(=O)c1cc(F)ccc1Oc1nncnc1N1CCC2(C1)CN([C@H](CCCN(C)CCC(=O)N(C)C)C(C)C)C2)C(C)C [Compound 246, (R)-2-((5-(2-(6-((3-(dimethylamino)-3-oxopropyl)(methyl)amino)-2-methylhexan-3-yl)-2,6-diazaspiro[3.4]octan-6-yl)-1,2,4-triazin-6-yl)oxy)-N-ethyl-5-fluoro-N-isopropylbenzamide formate]	60			> 30200
CCN(C(=O)c1cc(F)ccc1Oc1nncnc1N1CCC2(C1)CN([C@H](CCCNCCC(F)F)C(C)C)C2)C(C)C.O=C(O)/C=C/C(=O)O [Compound 114, (R)-2-(5-(2-(6-((3,3-difluoropropyl)amino)-2-methylhexan-3-yl)-2,6-diazaspiro[3.4]octan-6-yl)-1,2,4-triazin-6-yl)oxy)-N-ethyl-5-fluoro-N-isopropylbenzamide fumarate]	14			> 30200
CC(C)[C@@H](CCC(C)(C)N)N1CC2(CCN(c3ncnnc3Oc3ccc(F)cc3-c3cncnc3C3CC3)C2)C1 (single isomer, unassigned) [Compound 37, (*R)-5-(6-(6-(2-(4-cyclopropylpyrimidin-5-yl)-4-fluorophenoxy)-1,2,4-triazin-5-yl)-2,6-diazaspiro[3.4]octan-2-yl)-2,6-dimethylheptan-2-amine]	40	> 12	< 1	
CCN(C(=O)c1cc(F)ccc1Oc1nncnc1N1CCC2(C1)CN([C@H](CCCNCC(OC)OC)C(C)C)C2)C(C)C.O=C(O)/C=C/C(=O)O [Compound 104, (R)-2-((5-(2-(6-((2,2-dimethoxyethyl)amino)-2-methylhexan-3-yl)-2,6-diazaspiro[3.4]octan-6-yl)-1,2,4-triazin-6-yl)oxy)-N-ethyl-5-fluoro-N-isopropylbenzamide fumarate]	6.7	8.7	6.1	> 30200
CCN(C(=O)c1cc(F)ccc1Oc1nncnc1N1CCC2(C1)CN([C@H](CCCN[C@H](C)COC)C(C)C)C2)C(C)C.O=C(O)/C=C/C(=O)O [Compound 112, N-ethyl-5-fluoro-N-isopropyl-2-(5(2-((R)-6-(((R)-1-methoxypropan-2-yl)amino)-2-methylhexan-3-yl)-2,6-diazaspiro[3.4]octan-6-yl)-1,2,4-triazin-6-yl)oxy)benzamide fumarate]	9.8			> 30200
CCN(C(=O)c1cc(F)ccc1Oc1nncnc1N1CCC2(C1)CN([C@H](CCCN(C)CCNC(C)=O)C(C)C)C2)C(C)C.O=C(O)/C=C/C(=O)O [Compound 245, (R)-2-((5-(2-(6-((2-acetamidoethyl)(methyl)amino)-2-methylhexan-3-yl)-2,6-diazaspiro[3.4]octan-6-yl)-1,2,4-triazin-6-yl)oxy)-N-ethyl-5-fluoro-N-isopropylbenzamide fumarate]	73	7	< 1	> 30200
COCCNCCC[C@H](C(C)C)N1CC2(CCN(c3ncnnc3Oc3ccc(F)cc3C(=O)N(C(C)C)C(C)C)C2)C1 (single isomer, unassigned) [Compound 99, (*R)-5-fluoro-N,N-isopropyl-2-((5-(2-(6-((2-methoxyethyl)amino)-2-methylhexan-3-yl)-2,6-diazaspiro[3.4]octan-6-yl)-1,2,4-triazin-6-yl)oxy)benzamide oxalate]	8.5			> 30200
